Data published in patent publication US9809697B2, “Crosslinking agent, crosslinked polymer, and compound” (THE NIPPON SYNTHETIC CHEMICAL INDUSTRY CO., LTD., priority 2013, dated 2017).

Assay: Solubility in water
Assay type: physicochemical
Conditions: solubility in 100 g of water at 23° C.
Method: The white solid obtained above was examined for solubility in 100 g of water at 23° C.

Crosslinking agent Solubility [g] | Compound
12.5 | NNC(=O)CCCCC(=O)NN [ADH, adipic acid dihydrazide]
150 | CN(N)C(=O)CCCCC(=O)N(C)N [formula (4)]
